Legend:
Format in all cases: cell-based
[1] = biological target: T1, SLC9A1 (Homo sapiens, UniProt P19634); experiment: Degradation of endogenous SLC9A1 (immunoblot)
T1 construct: endogenous in cells; host or cells: HAP1, KBM7 (WT and CRBN knockout)
Description: (B) HAP1 and KBM7 cells were treated with different concentrations of d9A1-2.
(C)Both WT and CRBN knockout KBM7 cell lines were treated with 1 µM d9A1-2 for 16 hours.
(D) Chemical “rescue” of d9A1-2 driven degradation. WT KBM7 cell lines were treated with 0.5 µM d9A1-2 for 16 hours. These cells were also treated with bortezomib (bort. 0.25 µM), MG-132 (MG, 1 µM), MLN4924 (MLN,1 µM), pomalidomide (poma., 1 µM), or bafilomycin A1 (bafi., 10 µM). All molecules, apart from bafilomycin, could rescue SLC9A1 from degradation.
(B) HAP1 cells were treated with a dose curve of the warhead, d9A1-1, d9A1-2, d9A1-3, d9A1-4, for 24 hours.
(C) KBM7 cells were treated with varying concentrations of d9A1-2.
HEK293T, LS180 were obtained from ATCC (Manassas, VA, USA), HAP1 WT, HAP1 -/-SLC38A2 (HZGHC001975c003), HAP1 -/-SLC38A9 (HZGHC000777c011) were obtained from Horizon Genomics. Other cell lines utilized here: CAKI (a gift of Georg Winter’s lab), SW620, SW480 (both a gift from Walter Berger’s lab, Medical University Vienna), LOVO, HCT15 (both a gift from Chris Gasche), KBM7 (a gift from Thijn Brummelkamp’s lab), KBM7 -/- CRBN was described in Mayor-Ruiz et al. Cells were cultured, according to the ATCC recommendation in DMEM, RPMI or IMDM medium (Gibco) supplemented with 10% (v/v) FBS and antibiotics (100 U/ml penicillin and […] streptomycin). Knock-in single cell clones of dTAG-HA SLC38A2 HAP1 cell line were generated as previously described. For starvation, culture media was replaced with media without amino acids or FBS.
For immunoblotting, whole cell extracts were prepared using RIPA lysis buffer (25 mM Tris/HCl pH 7.6, 150 mM NaCl, 1% NP-40, 1% sodium deoxycholate, 0.1% SDS, EDTA-free protease inhibitor (Roche) and phosphatase inhibitors 2+3 (Sigma- Aldrich)). Cell extracts were incubated for 15 min on ice in 50 µL RIPA buffer. Lysates were cleared by centrifugation (20,000 g, 10 min, 4° C.). Protein extracts were quantified and normalized using the BCA assay (Thermo Scientific). Where indicated, cleared lysates where treated with the enzyme PNGase (NEB) to deglycosylate the proteins. Lämmli Sample Buffer 4x was added to protein extract samples without boiling. Cell lysates were run on SDS-polyacrylamide gel in tris-glycine running buffer and transferred to nitrocellulose membranes Amersham Protran 0.45 µm (GE Healthcare), according to standard methods. The membranes were incubated with the antibodies indicated below and visualized with horseradish peroxidase-conjugated secondary antibodies (described below) using the ECL Western blotting system (Thermo Scientific). The following antibodies were used: GAPDH (Santa Cruz, sc-365062), Actin (Cyoskeleton Inc., #AAN01), HA (Covance, cat #MMS-101R), HA (Cell Signaling, #3724), HA7-HRP (Sigma, H6533), HA (Roche, #11867423001), SLC9A1 (Santa Cruz, sc-136239), SLC2A1 (Cell Signaling, #12939), SLC38A1 (Cell Signaling, #36057). Secondary antibody for imaging goat anti-Rat IgG Alexa Fluor 488 (ThermoFisher, A11006). The following secondary antibodies were used for immunoblotting: goat anti-mouse HRP (115-035-003, Jackson ImmunoResearch) and goat anti-rabbit HRP (111-035-003, Jackson ImmunoResearch).
MG132, Bortezomib, Pomalidomide were obtained from Selleckchem. MLN4924 was obtained from MedchemExpress. Bafilomycin was obtained from Enzo Life Sciences. dTAG13 was a generous gift from the Nathanael Gray laboratory, Dana Farber Cancer Institute. The d9A1 degrader series (warhead, d9A1-1 to d9A1-4) was synthesized by Wuxi AppTec. All chemicals were dissolved in DMSO (Sigma-Aldrich) and utilized at the concertation described in respective figures.

[2] = biological target: T2, Strep/HA SLC9A3 (Homo sapiens, UniProt P48764); experiment: Selectivity across SLC9 family: degradation of exogenous Strep/HA SLC9A3; settings: HAP1; 250 or 750 nM; 16 hours
T2 construct: expressed in transfected cells; host or cells: HAP1 (lentiviral, pRRL Strep-HA; cDNA synthesized by Genescript)
T2 sequence (P48764 26-834): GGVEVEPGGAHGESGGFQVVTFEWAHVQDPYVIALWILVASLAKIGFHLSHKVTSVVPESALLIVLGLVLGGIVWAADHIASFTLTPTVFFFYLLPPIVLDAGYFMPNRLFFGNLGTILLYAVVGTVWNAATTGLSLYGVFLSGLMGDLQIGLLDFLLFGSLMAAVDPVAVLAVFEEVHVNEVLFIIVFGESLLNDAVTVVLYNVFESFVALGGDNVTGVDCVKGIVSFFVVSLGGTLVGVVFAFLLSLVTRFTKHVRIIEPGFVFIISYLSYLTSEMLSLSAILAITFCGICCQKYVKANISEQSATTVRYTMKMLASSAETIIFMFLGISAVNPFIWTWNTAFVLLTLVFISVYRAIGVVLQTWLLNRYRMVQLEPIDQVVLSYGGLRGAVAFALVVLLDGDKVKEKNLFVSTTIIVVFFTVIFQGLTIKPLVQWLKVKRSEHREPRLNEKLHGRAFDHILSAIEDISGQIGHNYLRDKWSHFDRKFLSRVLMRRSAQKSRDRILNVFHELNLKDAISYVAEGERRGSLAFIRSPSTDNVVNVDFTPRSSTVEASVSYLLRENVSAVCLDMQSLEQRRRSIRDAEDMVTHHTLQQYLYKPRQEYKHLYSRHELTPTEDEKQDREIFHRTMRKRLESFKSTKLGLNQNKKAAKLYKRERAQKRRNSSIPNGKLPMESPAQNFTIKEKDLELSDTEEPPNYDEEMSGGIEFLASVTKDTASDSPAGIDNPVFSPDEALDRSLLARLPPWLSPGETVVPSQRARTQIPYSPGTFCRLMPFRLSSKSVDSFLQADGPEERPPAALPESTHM
Description: (§1) (E) Selectivity of d9A1-2 was tested across HAP1 cell lines expressing Strep/HASLC9A1, 9A4, 9A5, 9A8, 9A2, 9B2, 9A6, 9A9, and 9A3. Cells were treated with varying concentrations of d9A1-2 for 16 hours, after which degradation of the exogenous SLCs was monitored.
(§2) SLC1A5, SLC2A1, SLC2A3, SLC16A1, SLC38A1, SLC38A2 were obtained as gateway-compatible pENTR/pDONR vectors from the Harvard PlasmID Repository. SLC39A7 was obtained from Dharmacon, GE Healthcare. The following vectors were synthesized by Genescript: SLC4A4, SLC7A3, SLC38A9, SLC25A1, SLC9A1, SLC9A2, SLC9A3, SLC9A4, SLC9A5, SLC9A6, SLC9A7, SLC9A8, and SLC9B2. SLC30A9, SLC33A1, SLC35B2, SLC25A26, and MTCH2 were a gift from the RESOLUTE consortium. cDNAs were transferred into gateway-compatible lentiviral expression vectors: pLX305 dTAG vectors (Addgene #91797/8) or pRRL Strep-HA (described previously43, EF1a promotor driven expression) using LR recombination (ThermoFisher Scientific). […]
(§3) For immunoblotting, whole cell extracts were prepared using RIPA lysis buffer (25 mM Tris/HCl pH 7.6, 150 mM NaCl, 1% NP-40, 1% sodium deoxycholate, 0.1% SDS, EDTA-free protease inhibitor (Roche) and phosphatase inhibitors 2+3 (Sigma- Aldrich)). […] Protein extracts were quantified and normalized using the BCA assay (Thermo Scientific). […]

[3] = biological target: T3, Strep/HA SLC9A8 (Homo sapiens, UniProt Q9Y2E8); experiment: Selectivity across SLC9 family: degradation of exogenous Strep/HA SLC9A8; settings: HAP1; 250 or 750 nM; 16 hours
T3 construct: expressed in transfected cells; host or cells: HAP1 (lentiviral, pRRL Strep-HA; cDNA synthesized by Genescript)
T3 sequence (Q9Y2E8 whole entry): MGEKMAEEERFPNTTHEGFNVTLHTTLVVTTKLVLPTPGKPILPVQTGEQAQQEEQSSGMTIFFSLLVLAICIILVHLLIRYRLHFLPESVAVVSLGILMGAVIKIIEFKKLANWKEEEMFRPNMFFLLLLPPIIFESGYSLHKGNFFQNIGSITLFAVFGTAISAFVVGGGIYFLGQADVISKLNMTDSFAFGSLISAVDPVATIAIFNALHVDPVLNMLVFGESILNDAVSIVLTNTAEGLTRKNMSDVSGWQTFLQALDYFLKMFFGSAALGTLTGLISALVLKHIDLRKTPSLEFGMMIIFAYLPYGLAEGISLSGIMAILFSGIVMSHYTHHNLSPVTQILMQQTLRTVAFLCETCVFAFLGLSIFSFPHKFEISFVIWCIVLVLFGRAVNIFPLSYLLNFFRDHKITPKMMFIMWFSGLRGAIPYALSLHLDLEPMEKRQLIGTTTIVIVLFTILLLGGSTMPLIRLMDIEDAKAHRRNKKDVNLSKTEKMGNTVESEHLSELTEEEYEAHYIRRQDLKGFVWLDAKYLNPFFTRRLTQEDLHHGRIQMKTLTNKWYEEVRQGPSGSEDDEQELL
Description: as §1, §2, §3

T1 sequence (P19634 whole entry): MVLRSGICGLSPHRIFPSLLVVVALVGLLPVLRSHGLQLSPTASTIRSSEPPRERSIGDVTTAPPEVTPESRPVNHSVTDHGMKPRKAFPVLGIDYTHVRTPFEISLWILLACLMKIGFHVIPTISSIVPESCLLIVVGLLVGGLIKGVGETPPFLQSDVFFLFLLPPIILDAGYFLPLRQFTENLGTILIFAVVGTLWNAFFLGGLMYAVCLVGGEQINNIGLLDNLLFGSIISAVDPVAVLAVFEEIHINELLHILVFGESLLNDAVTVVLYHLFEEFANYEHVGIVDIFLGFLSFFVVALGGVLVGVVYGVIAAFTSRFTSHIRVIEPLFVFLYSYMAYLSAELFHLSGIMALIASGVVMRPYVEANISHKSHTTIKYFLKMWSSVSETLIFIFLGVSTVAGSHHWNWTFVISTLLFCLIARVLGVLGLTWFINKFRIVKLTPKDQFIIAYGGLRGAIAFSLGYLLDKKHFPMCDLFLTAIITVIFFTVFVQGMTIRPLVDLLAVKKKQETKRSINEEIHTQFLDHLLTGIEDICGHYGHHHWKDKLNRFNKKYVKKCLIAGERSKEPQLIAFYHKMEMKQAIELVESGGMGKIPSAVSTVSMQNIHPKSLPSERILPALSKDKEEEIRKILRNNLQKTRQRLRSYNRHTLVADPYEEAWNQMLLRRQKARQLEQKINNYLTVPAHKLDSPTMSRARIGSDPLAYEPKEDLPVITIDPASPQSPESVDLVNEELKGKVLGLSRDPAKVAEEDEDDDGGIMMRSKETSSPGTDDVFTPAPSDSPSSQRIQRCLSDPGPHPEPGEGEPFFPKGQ

Cc1cc(-c2ccc(C(=O)NCCOCCOCCOCCOCCNc3cccc4c3C(=O)N(C3CCC(=O)NC3=O)C4=O)cc2N2CCC(c3[nH]cnc3C)CC2)ccc1F (stereo not shown) [d9A1-2]
degradation of endogenous SLC9A1 ([1]; HAP1 and KBM7 cells): degradation of endogenous SLC9A1 at sub-micromolar concentration | time within which degradation of SLC9A1 was observed ([1]; HAP1 and KBM7 cells, different concentrations): ≤ 8 h | SLC9A1 degradation, dose curve ([1]; HAP1 cells, 24 hours): most effective | SLC9A1 degradation in WT and CRBN knockout cells ([1]; KBM7 WT and CRBN knockout, 1 µM, 16 hours): observed in WT but not CRBN knockout | SLC9A1 expression, time course ([1]; KBM7 cells, varying concentrations, 5, 7, 9 or 12 hours): Reduction of SLC9A1 expression was observed | abundance of exogenous SLC9A3 [2]: not significantly affected | abundance of exogenous SLC9A8 [3]: not significantly affected

Reference: patent US20230241226A1, “COMPOUNDS FOR TARGETED DEGRADATION OF CARRIER PROTEINS AND USES THEREOF” (CeMM - Forschungszentrum für Molekulare Medizin GmbH, priority 2019, published 2023)
